# Assay results: ChEMBL document CHEMBL3804767, “Discovery and Preclinical Evaluation of BMS-955829, a Potent Positive Allosteric Modulator of mGluR5” (ACS Med Chem Lett, 2016)
# Activity calls are given as the source filed them. The calls are words filed in the database; no cut-off is given here.
# Experiments:
# [1] = molecular target: T1, Metabotropic glutamate receptor 5 (Homo sapiens, UniProt P41594); assay: Displacement of [3H]MPEP in mGlu5 receptor (unknown origin) incubated for 60 mins by liquid scintillation counting method
# T1 sequence (P41594 whole entry): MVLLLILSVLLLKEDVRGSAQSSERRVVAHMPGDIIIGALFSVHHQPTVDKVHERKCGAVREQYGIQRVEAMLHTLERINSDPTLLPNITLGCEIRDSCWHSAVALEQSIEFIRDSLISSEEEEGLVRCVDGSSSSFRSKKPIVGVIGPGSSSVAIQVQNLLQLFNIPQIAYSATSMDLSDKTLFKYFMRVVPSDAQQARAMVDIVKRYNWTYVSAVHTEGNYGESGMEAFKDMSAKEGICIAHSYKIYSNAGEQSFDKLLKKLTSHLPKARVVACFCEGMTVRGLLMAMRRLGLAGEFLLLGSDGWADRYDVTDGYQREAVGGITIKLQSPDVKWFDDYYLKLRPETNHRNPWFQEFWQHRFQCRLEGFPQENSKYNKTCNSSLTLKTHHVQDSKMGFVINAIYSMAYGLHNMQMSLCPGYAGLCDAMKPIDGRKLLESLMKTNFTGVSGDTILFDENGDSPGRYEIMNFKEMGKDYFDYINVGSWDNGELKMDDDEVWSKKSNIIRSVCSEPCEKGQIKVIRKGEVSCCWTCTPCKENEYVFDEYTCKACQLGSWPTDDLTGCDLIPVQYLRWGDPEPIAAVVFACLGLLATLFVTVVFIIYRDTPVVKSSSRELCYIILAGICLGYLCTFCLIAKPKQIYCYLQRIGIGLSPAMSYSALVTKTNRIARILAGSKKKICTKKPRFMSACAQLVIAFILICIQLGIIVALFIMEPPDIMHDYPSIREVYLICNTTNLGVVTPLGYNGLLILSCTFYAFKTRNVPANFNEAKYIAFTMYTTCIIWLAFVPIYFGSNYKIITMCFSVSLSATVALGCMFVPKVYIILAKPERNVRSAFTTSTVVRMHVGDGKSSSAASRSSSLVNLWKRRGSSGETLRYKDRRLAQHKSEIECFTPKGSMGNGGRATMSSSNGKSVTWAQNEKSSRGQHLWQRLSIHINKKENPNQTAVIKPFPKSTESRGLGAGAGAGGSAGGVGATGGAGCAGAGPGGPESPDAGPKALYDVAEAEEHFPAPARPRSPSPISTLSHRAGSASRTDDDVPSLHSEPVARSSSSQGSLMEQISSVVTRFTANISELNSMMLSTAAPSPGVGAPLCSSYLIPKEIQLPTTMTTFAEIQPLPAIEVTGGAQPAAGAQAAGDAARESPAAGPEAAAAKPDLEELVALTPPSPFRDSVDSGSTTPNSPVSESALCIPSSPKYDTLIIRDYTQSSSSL
# [2] = molecular target: T1, Metabotropic glutamate receptor 5
# Description: Positive allosteric modulation of human mGlu5A receptor expressed in HEK293 cells coexpressing rat glutamate-aspartate transporter assessed as potentiation of L-glutamate-induced Ca2+ signal incubated for 60 mins by calcium 4 dye based FLIPR assay
# [3] = molecular target: T1, Metabotropic glutamate receptor 5; remark: listed apart in the source
# Description: Agonist activity at human mGlu5A receptor expressed in HEK293 cells coexpressing rat glutamate-aspartate transporter assessed as induction of Ca2+ release by calcium 4 dye based FLIPR assay
# [4] = molecular target: Metabotropic glutamate receptor 5 (Rattus norvegicus, UniProt P31424); assay: Agonist activity at mGlu5A receptor in primary rat cortical astrocytes; format: cell-based
# Mus musculus [5] = assay: Neurotoxicity in C57/BL6 mouse assessed as induction of convulsion at 10 mg/kg, ip; format: toxicity, organism-based; details: in vivo
# [6] = Protein binding in plasma (unknown origin); format: ADME, cell-free; details: read-out: PPB (converted)
# Mus musculus [7] = assay: Neurotoxicity in C57/BL6 mouse assessed as induction of convulsion at 10 mg/kg, ip coadministered with (4R,5R)-5-Phenyl-4-(4-(phenylethynyl)pyridin-2-yl)oxazolidin-2-one; format: toxicity, organism-based; details: in vivo
# [8] = molecular target: T1, Metabotropic glutamate receptor 5; remark: listed apart in the source
# Description: Displacement of [3H]MPEPgamma in mGlu5 receptor (unknown origin) incubated for 60 mins by liquid scintillation counting method
# Mus musculus [9] = assay: Neurotoxicity in C57/BL6 mouse assessed as induction of convulsion at 30 mg/kg, ip; format: toxicity, organism-based; details: in vivo
# Mus musculus [10] = assay: Ex vivo receptor occupancy of mGlu5 receptor in C57/BL6 mouse at 10 to 30 mg/kg, ip relative to control; format: functional
# [11] = molecular target: Metabotropic glutamate receptor 1 (Homo sapiens) (UniProt Q13255); assay: Positive allosteric modulation of mGlu1 receptor (unknown origin)
# [12] = molecular target: Metabotropic glutamate receptor 1 (Homo sapiens) (UniProt Q13255); assay: Negative allosteric modulation of mGlu1 receptor (unknown origin)
# [13] = molecular target: Metabotropic glutamate receptor 1 (Homo sapiens) (UniProt Q13255); assay: Agonist activity at mGlu1 receptor (unknown origin)
# [14] = molecular target: Metabotropic glutamate receptor 2 (Homo sapiens) (UniProt Q14416); assay: Positive allosteric modulation of mGlu2 receptor (unknown origin)
# Metabotropic glutamate receptor 2 (Homo sapiens), sequence (Q14416 19-872 limits assumed): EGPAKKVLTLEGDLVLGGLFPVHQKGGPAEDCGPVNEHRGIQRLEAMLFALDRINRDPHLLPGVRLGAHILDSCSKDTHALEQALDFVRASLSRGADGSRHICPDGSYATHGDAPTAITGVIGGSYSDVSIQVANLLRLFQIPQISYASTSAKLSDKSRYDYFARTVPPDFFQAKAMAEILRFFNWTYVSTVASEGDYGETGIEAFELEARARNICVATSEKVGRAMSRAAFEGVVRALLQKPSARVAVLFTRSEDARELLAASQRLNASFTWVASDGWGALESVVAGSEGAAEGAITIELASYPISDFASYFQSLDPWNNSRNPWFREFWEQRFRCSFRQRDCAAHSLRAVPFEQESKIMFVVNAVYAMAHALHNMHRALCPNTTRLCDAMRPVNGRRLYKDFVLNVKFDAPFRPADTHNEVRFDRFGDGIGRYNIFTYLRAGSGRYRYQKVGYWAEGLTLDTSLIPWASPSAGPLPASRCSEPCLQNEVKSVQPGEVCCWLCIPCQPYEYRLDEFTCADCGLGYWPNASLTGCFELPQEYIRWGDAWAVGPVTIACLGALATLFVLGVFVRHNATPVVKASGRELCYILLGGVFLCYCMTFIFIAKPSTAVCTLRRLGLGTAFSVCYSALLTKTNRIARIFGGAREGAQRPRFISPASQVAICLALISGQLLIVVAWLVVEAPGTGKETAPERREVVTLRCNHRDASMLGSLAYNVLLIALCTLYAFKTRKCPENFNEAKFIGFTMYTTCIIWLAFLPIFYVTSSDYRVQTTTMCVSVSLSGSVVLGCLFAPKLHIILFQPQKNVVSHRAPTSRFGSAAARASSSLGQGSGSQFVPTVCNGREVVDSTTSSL
# [15] = molecular target: Metabotropic glutamate receptor 2 (Homo sapiens) (UniProt Q14416); assay: Negative allosteric modulation of mGlu2 receptor (unknown origin)
# [16] = molecular target: Metabotropic glutamate receptor 2 (Homo sapiens) (UniProt Q14416); assay: Agonist activity at mGlu2 receptor (unknown origin)
# [17] = molecular target: Metabotropic glutamate receptor 3 (Homo sapiens) (UniProt Q14832); assay: Positive allosteric modulation of mGlu3 receptor (unknown origin)
# [18] = molecular target: Metabotropic glutamate receptor 3 (Homo sapiens) (UniProt Q14832); assay: Negative allosteric modulation of mGlu3 receptor (unknown origin)
# [19] = molecular target: Metabotropic glutamate receptor 3 (Homo sapiens) (UniProt Q14832); assay: Agonist activity at mGlu3 receptor (unknown origin)
# [20] = molecular target: Metabotropic glutamate receptor 4 (Homo sapiens) (UniProt Q14833); assay: Positive allosteric modulation of mGlu4 receptor (unknown origin)
# Metabotropic glutamate receptor 4 (Homo sapiens), sequence (Q14833 whole entry): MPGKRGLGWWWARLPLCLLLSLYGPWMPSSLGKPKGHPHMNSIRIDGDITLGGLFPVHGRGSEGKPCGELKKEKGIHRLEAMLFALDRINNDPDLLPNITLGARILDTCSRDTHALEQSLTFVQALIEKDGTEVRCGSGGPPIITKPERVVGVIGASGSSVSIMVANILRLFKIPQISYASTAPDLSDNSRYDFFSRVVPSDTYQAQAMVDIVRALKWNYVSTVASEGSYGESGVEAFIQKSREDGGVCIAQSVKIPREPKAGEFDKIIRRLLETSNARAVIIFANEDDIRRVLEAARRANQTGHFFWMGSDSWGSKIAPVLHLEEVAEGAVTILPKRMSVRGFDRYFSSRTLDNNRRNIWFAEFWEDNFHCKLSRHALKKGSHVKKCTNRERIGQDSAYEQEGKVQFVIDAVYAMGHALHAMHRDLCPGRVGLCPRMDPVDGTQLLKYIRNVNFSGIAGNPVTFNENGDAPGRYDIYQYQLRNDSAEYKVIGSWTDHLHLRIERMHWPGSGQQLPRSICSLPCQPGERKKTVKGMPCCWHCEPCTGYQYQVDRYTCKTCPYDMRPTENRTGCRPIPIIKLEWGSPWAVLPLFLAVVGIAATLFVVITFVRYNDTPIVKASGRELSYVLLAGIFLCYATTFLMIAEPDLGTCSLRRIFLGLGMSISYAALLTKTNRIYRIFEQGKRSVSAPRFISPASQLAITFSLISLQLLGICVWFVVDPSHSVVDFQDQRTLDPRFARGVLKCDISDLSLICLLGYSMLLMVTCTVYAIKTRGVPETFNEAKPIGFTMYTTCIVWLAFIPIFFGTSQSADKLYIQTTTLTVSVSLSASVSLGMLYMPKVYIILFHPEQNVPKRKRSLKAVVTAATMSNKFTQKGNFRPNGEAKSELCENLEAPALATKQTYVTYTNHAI
# [21] = molecular target: Metabotropic glutamate receptor 4 (Homo sapiens) (UniProt Q14833); assay: Negative allosteric modulation of mGlu4 receptor (unknown origin)
# [22] = molecular target: Metabotropic glutamate receptor 4 (Homo sapiens) (UniProt Q14833); assay: Agonist activity at mGlu4 receptor (unknown origin)
# [23] = molecular target: Metabotropic glutamate receptor 6 (Homo sapiens) (UniProt O15303); assay: Positive allosteric modulation of mGlu6 receptor (unknown origin)
# [24] = molecular target: Metabotropic glutamate receptor 6 (Homo sapiens) (UniProt O15303); assay: Negative allosteric modulation of mGlu6 receptor (unknown origin)
# [25] = molecular target: Metabotropic glutamate receptor 6 (Homo sapiens) (UniProt O15303); assay: Agonist activity at mGlu6 receptor (unknown origin)
# [26] = molecular target: Metabotropic glutamate receptor 7 (Homo sapiens) (UniProt Q14831); assay: Positive allosteric modulation of mGlu7 receptor (unknown origin)
# Metabotropic glutamate receptor 7 (Homo sapiens), sequence (Q14831 whole entry): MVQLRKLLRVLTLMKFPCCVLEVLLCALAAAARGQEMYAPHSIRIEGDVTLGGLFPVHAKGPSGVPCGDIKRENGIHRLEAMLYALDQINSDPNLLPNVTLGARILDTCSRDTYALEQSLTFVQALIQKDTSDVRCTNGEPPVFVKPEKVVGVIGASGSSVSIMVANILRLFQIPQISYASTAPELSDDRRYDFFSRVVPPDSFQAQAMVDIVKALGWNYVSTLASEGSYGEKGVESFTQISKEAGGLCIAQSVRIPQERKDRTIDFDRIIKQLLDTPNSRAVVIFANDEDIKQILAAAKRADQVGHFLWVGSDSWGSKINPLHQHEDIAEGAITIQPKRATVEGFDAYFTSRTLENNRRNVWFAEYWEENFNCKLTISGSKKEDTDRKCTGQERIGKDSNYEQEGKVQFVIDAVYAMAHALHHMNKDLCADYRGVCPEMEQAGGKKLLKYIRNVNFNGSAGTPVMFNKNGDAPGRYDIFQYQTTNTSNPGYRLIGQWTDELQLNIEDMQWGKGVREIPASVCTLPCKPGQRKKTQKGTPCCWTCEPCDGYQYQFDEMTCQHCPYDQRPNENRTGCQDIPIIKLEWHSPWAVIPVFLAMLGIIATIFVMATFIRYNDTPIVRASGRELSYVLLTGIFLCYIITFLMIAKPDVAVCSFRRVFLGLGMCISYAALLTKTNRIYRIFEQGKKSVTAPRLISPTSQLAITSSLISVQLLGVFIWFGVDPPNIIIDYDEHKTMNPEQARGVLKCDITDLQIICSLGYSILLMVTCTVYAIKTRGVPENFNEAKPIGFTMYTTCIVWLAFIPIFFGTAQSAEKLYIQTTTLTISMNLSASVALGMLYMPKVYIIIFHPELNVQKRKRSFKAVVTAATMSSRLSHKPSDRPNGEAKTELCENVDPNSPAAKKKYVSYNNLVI
# [27] = molecular target: Metabotropic glutamate receptor 7 (Homo sapiens) (UniProt Q14831); assay: Negative allosteric modulation of mGlu7 receptor (unknown origin)
# [28] = molecular target: Metabotropic glutamate receptor 7 (Homo sapiens) (UniProt Q14831); assay: Agonist activity at mGlu7 receptor (unknown origin)
# [29] = molecular target: Metabotropic glutamate receptor 8 (Homo sapiens) (UniProt O00222); assay: Positive allosteric modulation of mGlu8 receptor (unknown origin)
# Metabotropic glutamate receptor 8 (Homo sapiens), sequence (O00222 whole entry): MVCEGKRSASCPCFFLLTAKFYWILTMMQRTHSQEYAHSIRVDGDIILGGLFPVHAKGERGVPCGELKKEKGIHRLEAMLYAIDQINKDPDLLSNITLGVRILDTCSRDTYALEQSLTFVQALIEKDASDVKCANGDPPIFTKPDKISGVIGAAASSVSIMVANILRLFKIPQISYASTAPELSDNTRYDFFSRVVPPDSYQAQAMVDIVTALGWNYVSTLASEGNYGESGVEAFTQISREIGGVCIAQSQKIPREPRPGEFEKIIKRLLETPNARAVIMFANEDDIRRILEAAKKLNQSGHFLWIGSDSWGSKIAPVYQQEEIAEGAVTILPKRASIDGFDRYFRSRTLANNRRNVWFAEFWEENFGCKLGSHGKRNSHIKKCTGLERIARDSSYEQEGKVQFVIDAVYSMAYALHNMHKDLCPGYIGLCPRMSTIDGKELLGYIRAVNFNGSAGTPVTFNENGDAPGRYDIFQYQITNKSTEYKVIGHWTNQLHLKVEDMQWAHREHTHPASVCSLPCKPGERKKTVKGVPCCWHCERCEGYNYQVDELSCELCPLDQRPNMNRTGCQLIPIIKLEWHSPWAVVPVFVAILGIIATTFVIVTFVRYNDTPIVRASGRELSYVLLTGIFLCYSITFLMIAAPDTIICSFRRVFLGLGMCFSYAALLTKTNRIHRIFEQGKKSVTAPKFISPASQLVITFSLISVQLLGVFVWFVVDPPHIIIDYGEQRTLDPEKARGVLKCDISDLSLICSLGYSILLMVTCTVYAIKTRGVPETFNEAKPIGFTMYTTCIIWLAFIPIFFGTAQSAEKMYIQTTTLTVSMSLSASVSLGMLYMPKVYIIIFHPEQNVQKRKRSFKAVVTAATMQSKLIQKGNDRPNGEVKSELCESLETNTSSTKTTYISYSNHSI
# [30] = molecular target: Metabotropic glutamate receptor 8 (Homo sapiens) (UniProt O00222); assay: Negative allosteric modulation of mGlu8 receptor (unknown origin)
# [31] = molecular target: Metabotropic glutamate receptor 8 (Homo sapiens) (UniProt O00222); assay: Agonist activity at mGlu8 receptor (unknown origin)
# Mus musculus [32] = assay: Cognitive enhancement effect in mouse assessed as reduction in time spent with familiar object in retention session at 0.3 to 3 mg/kg, sc treated for 60 mins prior to acquisition session measured after 24 hrs for 10 mins by novel object recognition assay; format: functional; details: read-out: MED
# Plasma [33] = assay: Total plasma concentration in mouse at 0.3 mg/kg, sc; format: ADME, organism-based; details: in vivo
# Brain [34] = assay: Total drug level in mouse brain at 0.3 mg/kg, sc; format: ADME, organism-based; details: in vivo, read-out: Drug uptake
# Rattus norvegicus [35] = assay: Reversal of NMDA antagonist MK-801-induced deficits in set shift performance in Sprague-Dawley rat assessed as reduction in number of trial required to achieve 8 consecutive correct selection at 0.1 to 3 mg/kg, sc pretreated for 25 mins followed by MK-801 injection measured after 35 mins by wisconsin card sorting test; format: functional; details: read-out: MED
# Mus musculus [36] = assay: Receptor occupancy of mGlu5 receptor in mouse at 0.3 mg/kg, sc relative to control; format: functional
# Plasma [37] = assay: Total plasma concentration in Sprague-Dawley rat at 0.1 mg/kg, sc; format: ADME, organism-based; details: in vivo
# Brain [38] = assay: Total drug level in Sprague-Dawley rat brain at 0.1 mg/kg, sc; format: ADME, organism-based; details: in vivo, read-out: Drug uptake
# Rattus norvegicus [39] = assay: Receptor occupancy of mGlu5 receptor in Sprague-Dawley rat at 0.1 mg/kg, sc relative to control; format: functional
# [40] = Inhibition of human recombinant CYP450; format: ADME
# [41] = molecular target: Voltage-gated inwardly rectifying potassium channel KCNH2 (Homo sapiens, UniProt Q12809); assay: Inhibition of human ERG by patch clamp method
# Homo sapiens = species: Homo sapiens; assay: Inhibition of sodium channel (unknown origin) at 10 uM by patch clamp method relative to control
# [42] = molecular target: T2, Progesterone receptor (Homo sapiens) (UniProt P06401); assay: Antagonist activity at progesterone receptor (unknown origin)
# T2 sequence (whole entry): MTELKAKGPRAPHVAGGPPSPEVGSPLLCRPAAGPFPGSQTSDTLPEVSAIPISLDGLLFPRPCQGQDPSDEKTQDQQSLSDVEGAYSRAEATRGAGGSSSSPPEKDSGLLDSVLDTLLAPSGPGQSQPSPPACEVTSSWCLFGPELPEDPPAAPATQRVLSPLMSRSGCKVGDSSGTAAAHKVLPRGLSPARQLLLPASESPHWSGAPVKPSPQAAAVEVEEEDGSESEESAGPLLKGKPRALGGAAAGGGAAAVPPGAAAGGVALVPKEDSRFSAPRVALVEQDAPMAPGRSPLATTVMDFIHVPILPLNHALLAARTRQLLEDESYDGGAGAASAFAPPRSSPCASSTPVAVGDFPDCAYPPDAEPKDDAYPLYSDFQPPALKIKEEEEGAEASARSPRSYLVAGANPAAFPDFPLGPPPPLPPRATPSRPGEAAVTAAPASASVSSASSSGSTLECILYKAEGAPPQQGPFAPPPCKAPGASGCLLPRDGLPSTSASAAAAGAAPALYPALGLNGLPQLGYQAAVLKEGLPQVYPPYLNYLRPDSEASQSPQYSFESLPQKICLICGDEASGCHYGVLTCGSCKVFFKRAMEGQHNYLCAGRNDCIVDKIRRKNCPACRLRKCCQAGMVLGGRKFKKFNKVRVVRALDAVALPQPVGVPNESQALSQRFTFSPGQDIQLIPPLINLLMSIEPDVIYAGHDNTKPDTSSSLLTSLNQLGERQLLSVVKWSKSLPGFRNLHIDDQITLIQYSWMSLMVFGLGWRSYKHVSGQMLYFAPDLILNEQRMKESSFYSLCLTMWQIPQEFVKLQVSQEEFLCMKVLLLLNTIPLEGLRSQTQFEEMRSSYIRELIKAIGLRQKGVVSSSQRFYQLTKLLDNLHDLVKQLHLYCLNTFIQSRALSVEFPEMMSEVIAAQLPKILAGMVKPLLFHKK
# [43] = molecular target: T2, Progesterone receptor (Homo sapiens); assay: Agonist activity at progesterone receptor (unknown origin)
# Progesterone receptor = molecular target: T3, Progesterone receptor (Homo sapiens, UniProt P06401); assay: Inhibition of progesterone receptor (unknown origin)
# T3 sequence (P06401 whole entry): T2 sequence (whole entry)
# Salmonella typhimurium [44] = assay: Mutagenicity in Salmonella typhimurium by Ames test in presence of s9 liver fraction; format: toxicity, organism-based; details: salmonella enterica subsp. enterica serovar typhimurium
# Salmonella typhimurium [45] = assay: Mutagenicity in Salmonella typhimurium by Ames test; format: toxicity, organism-based; details: salmonella enterica subsp. enterica serovar typhimurium
# [46] = Oral bioavailability in rat at 1 mg/kg; format: ADME, organism-based; details: in vivo
# [47] = Oral bioavailability in dog at 1 mg/kg; format: ADME, organism-based, Canis lupus familiaris; details: in vivo
# [48] = Oral bioavailability in cynomolgus monkey at 1 mg/kg; format: ADME, organism-based, Macaca fascicularis; details: in vivo
# [49] = Clearance in rat at 1 mg/kg, iv; format: ADME, organism-based; details: in vivo
# [50] = Volume of distribution at steady state in rat at 1 mg/kg, iv; format: ADME, organism-based; details: in vivo, read-out: Vdss
# [51] = Ratio of drug level in brain to plasma in rat at 1 mg/kg, iv; format: ADME, organism-based; details: read-out: BPR
# Rattus norvegicus [52] = assay: Neurotoxicity in rat assessed as neuronal necrosis in brain hippocampal slice at 100 mg/kg/day, po for 8 days by haematoxylin and eosin staining based assay; format: toxicity, organism-based; details: in vivo, 192 h
# Rattus norvegicus [53] = assay: Neurotoxicity in rat assessed as neuronal necrosis in brain auditory complex at 100 mg/kg/day, po for 8 days by haematoxylin and eosin staining based assay; format: toxicity, organism-based; details: in vivo, 192 h
# [54] = Cmax in rat at 100 mg/kg, po measured on day1; format: ADME, organism-based; parameters: dose 100 mg/kg, route oral; details: in vivo
# [55] = AUC (0 to 24 hrs) in rat at 100 mg/kg, po measured on day1; format: ADME, organism-based; parameters: time < 24 hr, dose 100 mg/kg, route oral; details: in vivo
# Rattus norvegicus [56] = assay: Toxicity in rat administered as repeated dosage for 2 weeks; format: organism-based; details: in vivo, 336 h
# Canis familiaris = assay: Toxicity in dog administered as repeated dosage for 5 days; format: organism-based, Canis lupus familiaris; details: in vivo, 120 h
smiles,measurement,setting,value
O=C1N[C@H](c2cccc(C#Cc3ccccc3)c2)[C@@H](c2cccc(F)c2)O1,Ki,[1],0.0065 µM
same,EC50,[2],0.015 µM
same,EC50,[3],> 30 µM
O=C1N[C@H](c2cncc(C#Cc3cncc(F)c3)c2)[C@@H](c2ccc(F)cc2)O1,EC50,[4],0.31 µM
same,Activity,Mus musculus [5],Toxic
same,fraction unbound,[6],0.035
same,Activity,Mus musculus [7],Non-toxic
same,EC50,[2],0.006 µM
same,Ki,[8],0.025 µM
O=C1N[C@H](c2cncc(C#Cc3ccccc3)c2)[C@@H](c2cc(F)ccc2F)O1,Activity,Mus musculus [9],Non-toxic
same,fraction unbound,[6],0.007
same,Occ,Mus musculus [10],94%
same,Activity,[11],> 10 µM
same,Activity,[12],> 10 µM
same,Activity,[13],> 10 µM
same,Activity,[14],> 10 µM
same,Activity,[15],> 10 µM
same,Activity,[16],> 10 µM
same,Activity,[17],> 10 µM
same,Activity,[18],> 10 µM
same,Activity,[19],> 10 µM
same,Activity,[20],> 10 µM
same,Activity,[21],> 10 µM
same,Activity,[22],> 10 µM
same,Activity,[23],> 10 µM
same,Activity,[24],> 10 µM
same,Activity,[25],> 10 µM
same,Activity,[26],> 10 µM
same,Activity,[27],> 10 µM
same,Activity,[28],> 10 µM
same,Activity,[29],> 10 µM
same,Activity,[30],> 10 µM
same,Activity,[31],> 10 µM
same,minimal effective dose,Mus musculus [32],0.3 mg/kg
same,concentration,Plasma [33],116 nM
same,concentration,Brain [34],178 nM
same,minimal effective dose,Rattus norvegicus [35],0.1 mg/kg
same,Occ,Mus musculus [36],18%
same,concentration,Plasma [37],34 nM
same,concentration,Brain [38],34 nM
same,Occ,Rattus norvegicus [39],19%
same,IC50,[40],≥ 1.3 µM
same,IC50,[41],3.6 µM
same,inhibition,Homo sapiens,40%
same,inhibition,[42],inactive
same,Activity,[43],inactive
same,IC50,Progesterone receptor,2.3 µM
same,Activity,Salmonella typhimurium [44],Non-toxic
same,Activity,Salmonella typhimurium [45],Non-toxic
same,bioavailability,[46],100%
same,bioavailability,[47],68%
same,bioavailability,[48],50%
same,clearance,[49],11 mL/min/kg
same,Vd,[50],1.8 L/kg
same,Kp,[51],1
same,Activity,Rattus norvegicus [52],Non-toxic
same,Activity,Rattus norvegicus [53],Non-toxic
same,Cmax,[54],41000 nM
same,AUC(0-t) at 24 h,[55],751 µM·h
same,Activity,Rattus norvegicus [56],Non-toxic
same,Activity,Canis familiaris,Non-toxic
